Measurements as given in patent US20050113317A1, “Combination of dehydroepiandrosterone or dehydroepiandrosterone-sulfate with a cromone for treatment of asthma or chronic obstructive pulmonary disease” (priority 2003, published 2005).
pEC50: −log10 of the molar value. Values joined by “and” are separate entries in the source; they are usually repeats but may differ in a detail not shown here. Equal values may be shown once.

Key:
[1] = test system: HT-29 SF cells; experiment: Reversal of DHEA effect on cell cycle; format: cell-based, human; settings: 25 FM DHEA
[2] = Particle size of jet-milled / spray-dried DHEA-S (Malvern Mastersizer X, light microscope); format: physicochemical; settings: two batches, visual examination of dispersions
Description: Approximately 1 g sample was passed through the jet mill, once, and approximately 2 g sample were passed through the jet mill twice. […] The resulting solution was sonicated for 3 minutes and appeared fully dispersed. The dispersed solutions were tested on a Malvern Mastersizer X with a small volume sampler (SVS) attachment. One sample of dispersed material was tested 5 times. The median particle size or D (v, 0.5) of unmilled material was 52.56 μm and the % RSD (relative standard deviation) was 7.61 for the 5 values. The D (v, 0.5) for a single pass through the jet mill was 3.90 μm and the % RSD was 1.27, and the D (v, 0.5) from a double pass through the jet mill 3.25 μm and the % RSD was 3.10.
The solution was spray-dried with a B-191 Mini Spray-Drier (Buchi, Flawil, Switzerland) with an inlet temperature of 55° C., outlet temperature of 40° C., at 100% aspirator, at 10% pump, nitrogen flow at 40 mbar and spray flow at 600 units. The spray-dried product was suspended in hexane and Span85 surfactant added to reduce agglomeration. The dispersions were sonicated with cooling for 3-5 minutes for complete dispersion and the dispersed solutions tested on a Malvern Mastersizer X with a Small Volume Sampler (SVS) attachment. […] Visual examination by light microscope of the dispersions of each batch confirmed that spray drying produced small respirable size particles. […]

[3] = test system: Intracellular adenosine in various Rat Tissues; experiment: In vivo effect on adenosine levels in rat tissues
Description: Folinic acid (50 mg/kg) was administered intraperitoneally once daily for fourteen days. […] Hearts were removed from animals and flash frozen in liquid nitrogen with 10 s of death. Liver and lungs were removed en bloc and flash frozen with 30 s of death. Brain tissue was subsequently dissected.

[4] = test system: rat peritoneal mast cells; experiment: Mast cell degranulation (histamine secretion) after compound 48/80; format: cell-based
Description: We determined whether DHEA-sulfate would reduce mast cell degranulation after stimulation with compound 48/80 in rat peritoneal mast cells. Mast cell degranulation was quantified by measurement of histamine, a substance contained within the secretory granules of mast cells. The release of histamine is believed to parallel the release of leukotrienes and contribute to the respiratory dysfunction.
Freshly isolated rat peritoneal mast cells (2×10^5 cells) were pre-incubated for 5 min at 37° C. in a Balanced Salt Solution containing 150 mM NaCl (pH 7.4), 2.7 mM KCl, 0.9 mM CaCl2, 4 mM Na2HPO4, 2.7 mM KH2PO4, 1.75 mg/ml BSA and 0.1 μg/ml compound 48/80.
Following incubation, the mixture is cooled to 4° C. then centrifuged at 4500 rpm for 5 min. The supernatant is collected and mixed for 30 min at 4° C. with 5% TCA (trichloroacetic acid) to cause protein precipitation. After centrifugation at 9500×g for 15 min, the supernatant is collected and mixed with 0.25 M HCl. Thereafter, the samples are mixed with 2M NaOH and 0.2% OPT (ortho-phtalaldehyde) and incubated for 30 min at 4° C. in darkness, after which time the reaction is stopped by addition of 0.5 M H2SO4.
The amount of secreted histamine is quantified by measuring the fluorescence intensity at λex=360 nm and λem=450 nm using a spectrofluorimeter (GeminiXS, Molecular Devices). The results are expressed as a percent inhibition of control histamine secretion.

[5] = Solubility of DHEA-S in NaCl media; format: physicochemical
From the text: Inhalation of pure water can produce a cough stimulus. […] The temperature effect is weaker at high NaCl concentrations.

[6] = HPLC analysis of drug degradation during jet milling; format: physicochemical; settings: HPLC peak area vs unmilled standard; single- and double-pass
Description: Two vials (A; single-pass; 150 mg) and (B double-pass; 600 mg) of the micronized drug were available for determining drug degradation during jet milling micronization. […] The chromatographic peak area for the HPLC assay of the unmilled drug standard solution (10 mg/ml) gave a value of 23,427. […] The chromatographic peak areas for vials A and B were 11,979 and 11,677, respectively.

[7] = Solubility remarks in text; format: physicochemical; settings: 10^-4 M; mast cell assay conditions
[8] = Short-term solution stability of DHEA-S nebulizer formulation; format: physicochemical; settings: for appearance / solution stability: 10 mg/mL in 0.12% NaCl
Description: Aliquots of this solution are filled into clear glass vials and stored at RT (24-26° C.) and at 40° C. The samples are checked daily for DHEA-S content, DHEA content, and appearance. For each time point, duplicate samples are withdrawn and diluted from each vial. […] The study is stopped on day three. […] The solution should easily be stable for the day of reconstitution in a clinical trial. The following section describes the aerosol properties of this formulation.

[9] = test system: HT-29 SF cells; experiment: DHEA effect on cell cycle (flow cytometry); format: cell-based, human
[10] = Solid-state stability with and without lactose at 50° C. (DHEA formed, HPLC); format: physicochemical; settings: 1 week at 50° C.; neat and lactose blend
From the text: These conditions were used to stress the formulation in order to predict its long-term stability results. […] The primary degradant is DHEA. […] The materials on accelerated storage become more cohesive with time as evidenced by clumping during sample weighing for chemical analysis. […] This is a considerable disadvantage since lactose is the most commonly used inhalation excipient for dry powder formulations. Continuing with the virtually anhydrous form would mean limiting formulations to neat powder or undertaking more comprehensive safety studies to use a novel excipient.

[11] = 15° C., 20 mM Na^+, Ksp 1316 mM^2

CC(C)CCC[C@@H](C)[C@H]1CC[C@H]2[C@@H]3CC=C4C[C@@H](O)CC[C@]4(C)[C@H]3CC[C@]12C [CH, cholesterol]
prevention of DHEA-induced S phase depletion ([1]; 72 hours): no effect

C[C@@](O)(CCO)CC(=O)O [MVA, mevalonic acid]
prevention of DHEA-induced S phase depletion ([1]; 48 hours): partially prevented this effect

C[C@]12CC[C@H](OS(=O)(=O)[O-])CC1=CC[C@@H]1[C@@H]2CC[C@]2(C)C(=O)CC[C@@H]12.[Na+] [Anhydrous DHEA-S]
mean particle size by light microscope [2]: 2.4 μm and 2.0 μm

C[C@]12CCC(=O)C=C1CC[C@@H]1[C@@H]2CC[C@@]2(C)[C@H]1CC[C@]2(C)O [Methyltestosterone]
effect on tissue adenosine ([3]; rats, administered daily for two weeks): multi-organ depletion of adenosine

C[C@]12CC[C@H](OS(=O)(=O)[O-])CC1=CC[C@@H]1[C@@H]2CC[C@]2(C)C(=O)CC[C@@H]12.[Na+] [DHEA-S, sodium dehydroepiandrostenone sulfate]
maximal effect, inhibition of mast cell degranulation ([4]; at 0.1 uM, percent inhibition of control histamine secretion): 69.9%
inhibition of mast cell degranulation ([4]; rat peritoneal mast cells, compound 48/80): concentration-dependent inhibition
pEC50 ([4]; rat peritoneal mast cells, compound 48/80, histamine secretion, read-out: EC50, inhibition of mast cell degranulation): 6.77
estimated DHEA-S solution concentration [5, 11]: 10.7 mg/mL
estimated DHEA-S^− solution concentration [5, 11]: 27.5 mM
solubility as a function of NaCl concentration ([5]; RT and refrigerated): decrease with NaCl concentration
effect of 20 mM phosphate buffer on solubility ([5]; RT, buffered vs unbuffered): suppress the solubility
degradation during jet milling micronization [6]: no detectable degradation
solubility under assay conditions [7]: highly limited
solution stability ([8]; 7.5 mg/mL of DHEA-S in 0.12% NaCl, RT): stable for at least one day at RT
appearance / solution stability ([8]; 40° C.): became cloudy after two days of storage
appearance / solution stability ([8]; RT (24-26° C.)): slight precipitate is observed on the third day

C[C@]12CC[C@H](O)CC1=CC[C@@H]1[C@@H]2CC[C@]2(C)C(=O)CC[C@@H]12 [DHEA, 3β-hydroxyandrost-5-en-17-one]
effect on tissue adenosine ([3]; rat, in vivo): multi-organ depletion of adenosine
cell cycle distribution ([9]; 200 μM DHEA, after 24 hours): more rapid increase in the percentage of cells in G1 and a decreased proportion of cells in S phase
cell cycle effect ([9]; 25, 50, 200 μM, 24-72 hours): G1 block in HT-29 SF cells in a time-and dose-dependent manner

CC12CCC3C(CC=C4CC(OS(=O)(=O)[O-])CCC43C)C1CCC2=O.[Na+] (centres unmarked) [DHEA-S Dihydrate]
DHEA generated on storage [10]: virtually no DHEA generated
